Measured values published in ChEMBL document CHEMBL1201862, “PubChem BioAssay data set” (2004).
“And” between values parts separate entries of the source, which are not always exact repeats. Equal values may be shown once.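 Five compound concentrations were applied to cells in 96-well plates for 48 hours; endpoints were derived by simple linear interpolation of the resulting dose-response curve. GI50 = concentration required for 50% inhibition of growth.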 The source made the active and inactive calls. Cut-off read from the data, not from the text of the source: active = GI50 up to about 1.1 µM and inactive = higher.

Assays:
Experiment in all cases: NCI anticancer screen, dose series, 48 h
[1] = tested on: SF-268
[2] = tested on: A498
[3] = tested on: NCI-H226
[4] = tested on: OVCAR-5
[5] = tested on: BT-549
[6] = tested on: HCC 2998
[7] = tested on: OVCAR-8
[8] = tested on: SF-295
[9] = tested on: ACHN
[10] = tested on: CAKI-1
[11] = tested on: MDA-MB-231
[12] = tested on: NCI/ADR-RES
[13] = tested on: SF-539
[14] = tested on: HL-60
[15] = tested on: PC-3
[16] = tested on: UACC-257
[17] = tested on: TK-10
[18] = tested on: HT-29
[19] = tested on: KM12

Measured: GI50

C=C1c2nc3ccccc3n2C=C(c2ccc(C)cc2)N1c1ccc(OC)cc1
inactive: [1] > 100 µM | [2] > 72.9 µM | [3] 27.9 µM | [4] > 100 µM | [5] > 82.8 µM | [6] 31.8 µM | [7] 75.5 µM | [8] 33.7 µM | [9] 61.5 µM | [10] 36.1 µM | [11] > 100 µM | [12] 14.9 µM | [13] > 69.5 µM | [14] 8.34 µM | [15] 16.4 µM | [16] > 89.1 µM | [17] > 83.4 µM | [18] 8.89 µM | [19] 5.56 µM

O=c1ccn(C2OC(CN(O)CCC3C(CO)OC(n4ccc(=O)[nH]c4=O)C3O)C(O)C2O)c(=O)[nH]1 (configuration not stated)
inactive: [1] > 100 µM | [2] > 100 µM | [3] > 100 µM | [4] > 100 µM | [5] > 100 µM | [6] > 100 µM | [7] > 100 µM | [8] > 100 µM | [9] > 100 µM | [10] > 100 µM | [11] > 100 µM | [12] > 100 µM | [14] > 100 µM | [15] > 100 µM | [16] > 100 µM | [17] > 100 µM | [18] > 100 µM | [19] > 100 µM

C=C1C(=O)OC2CC3(CO3)C3C(O)C(O)CC3(C)CC12 (configuration not stated)
inactive: [1] 40.3 µM | [2] 28.4 µM | [3] > 100 µM | [4] 27.7 µM | [5] 18.1 µM | [6] 17.3 µM | [7] 22.3 µM | [8] > 100 µM | [9] 19.7 µM | [10] 20.3 µM | [11] 28.6 µM | [12] 38.8 µM | [13] 19.1 µM | [14] 12.7 µM | [15] 45.8 µM | [16] 39.2 µM | [17] 35.6 µM | [18] 30.5 µM | [19] 32.9 µM

C/C(=N\NC(=S)N1CCOCC1)c1nc2cccnc2[nH]1
inactive: [1] 24.8 µM | [2] > 100 µM | [3] 38.5 µM | [4] 59.6 µM | [5] 11.2 µM | [6] 78.3 µM | [7] 21.4 µM | [8] 23.8 µM | [9] 25.4 µM | [10] 66.8 µM | [11] 28.9 µM | [12] 80.5 µM | [13] 19.3 µM | [14] 24.5 µM | [15] 27.9 µM | [16] 26 µM | [17] 31.8 µM | [18] 37.2 µM | [19] 67 µM

CCN(CC)CCCC(C)Nc1cc(/C=C/c2ccc(Cl)cc2)nc2cc(N(C)C)ccc12 (configuration not stated)
inactive: [1] 1.83 µM | [2] 1.69 µM | [3] 3.71 µM | [4] 1.94 µM | [5] 1.65 µM | [6] 2.07 µM | [7] 1.86 µM | [8] 1.9 µM | [9] 2.11 µM | [11] 1.22 µM | [12] 2.19 µM | [13] 2.15 µM | [14] 1.72 µM | [15] 1.41 µM | [17] 1.91 µM | [18] 1.34 µM | [19] 1.7 µM

COc1ccc(/C=C2/N/C(=N\N=C/C(O)C(O)C(O)C(O)CO)NC2=O)cc1 (configuration not stated)
inactive: [1] > 100 µM | [2] > 100 µM | [3] > 100 µM | [4] > 100 µM | [5] 82.4 µM and 65.6 µM | [6] > 100 µM | [7] > 100 µM | [8] > 100 µM | [9] > 100 µM | [10] > 100 µM | [11] > 100 µM | [12] > 100 µM | [13] > 100 µM | [14] 33 µM | [15] > 100 µM | [16] > 100 µM | [17] > 100 µM | [18] > 100 µM | [19] > 100 µM

CN(C)Cc1cc(/N=N/c2ccc(Cl)cc2)cc(CN(C)C)c1O
inactive: [1] 10.8 µM | [2] 14.7 µM | [3] 4.39 µM | [5] 11 µM | [6] 10.5 µM | [7] 3.75 µM | [8] 11.8 µM | [9] 6.43 µM | [10] 12.1 µM | [11] 7.71 µM | [12] 3.07 µM | [13] 10 µM | [14] 1.44 µM | [15] 5.41 µM | [16] 16.2 µM | [17] 5.94 µM | [18] 6.62 µM | [19] 6.55 µM

O=S(=O)(c1ccccc1)[C@@H]1[C@H]2C=C[C@](CS)(O2)[C@H]1S(=O)(=O)c1ccccc1
inactive: [1] > 100 µM | [2] > 100 µM | [3] > 100 µM | [4] > 100 µM | [5] 35.2 µM | [6] > 100 µM | [7] 50.1 µM | [8] > 100 µM | [9] 76.9 µM | [10] 31.6 µM | [11] > 100 µM | [12] 53.5 µM | [14] 32.8 µM | [15] 35.6 µM | [16] > 100 µM | [17] > 100 µM | [18] > 100 µM | [19] > 100 µM
